These are literature values, as cited in PubChem BioAssay AID1259409 (Chemical Carcinogenesis Research Information System (CCRIS), 2018).

In the data set the test system is rodent chemically induced tumor inhibition, incidence and multiplicity. The data set is described as follows: CCRIS tumor inhibitor studies.

`O=c1oc2c(O)c(O)cc3c(=O)oc4c(O)c(O)cc1c4c23`: the “tumour outcome (control, treated, inhibition, significance)” value by setting is: (Carcinogen: BENZO[A]PYRENE, 50-32-8, Dose [Inhibitor]: 0, 2500 NMOL IN 200 µL ACETONE:METHANOL (45:55) ONCE APPLIED 5 MIN PRIOR TO CARCINOGEN DOSE (STUDY DURATION: 21 WK), Route [Inhibitor]: DERMAL, Species: MOUSE, Strain/Sex: CD-1/FEMALE, Target Tissue: Type of Lesion: SKIN: TUMOR, Dose [Carcinogen]: 50 NMOL IN ACETONE:DMSO (90:10) ONCE, Promoter: 12-O-TETRADECANOYLPHORBOL-13-ACETATE, 16561-29-8) 55%, 33%, 40%, not significant; (Carcinogen: BENZO[A]PYRENE, 50-32-8, Dose [Inhibitor]: 100 MG/KG ADMINISTERED 1 HR BEFORE AND 6, 24, AND 48 HR AFTER BENZO[A]PYRENE TREATMENT (STUDY DURATION: 6 MO), Route [Inhibitor]: INTRAPERITONEAL, Species: MOUSE, Strain/Sex: STRAIN-A/MALE, Target Tissue: Type of Lesion: LUNG: ADENOMA, Dose [Carcinogen]: 100 MG/KG ONCE, Promoter: NONE USED) 18/18 (100%), 4/6 (67%), 33%, not significant; (Carcinogen: BENZO[A]PYRENE, 50-32-8, Dose [Inhibitor]: 100 MG/KG ADMINISTERED 1 HR BEFORE AND 6, 24, AND 48 HR AFTER CARCINOGEN TREATMENT FOLLOWED BY 6 MO OBSERVATION PERIOD (, Route [Inhibitor]: INTRAPERITONEAL, Species: MOUSE, Strain/Sex: STRAIN-A/MALE, Target Tissue: Type of Lesion: LUNG: ADENOMA, Dose [Carcinogen]: 100 MG/KG ONCE, Promoter: NONE USED) 18/18 (100%), 4/6 (67%), 33%, not significant; (Carcinogen: BENZO[A]PYRENE, 50-32-8, Dose [Inhibitor]: 100 MG/KG STARTING 5 D BEFORE AND CONTINUING THROUGH 10 D AFTER CARCINOGEN TREATMENT (STUDY DURATION: 6 MO), Route [Inhibitor]: ORAL, Species: MOUSE, Strain/Sex: STRAIN-A/MALE, Target Tissue: Type of Lesion: LUNG: ADENOMA, Dose [Carcinogen]: 100 MG/KG ONCE, Promoter: NONE USED) 18/18 (100%), 19/19 (100%), 0%, not significant; (Carcinogen: BENZO[A]PYRENE, 50-32-8, Dose [Inhibitor]: 100 MG/KG/D IN DIET STARTING 5 D BEFORE AND CONTINUING TO 10 D AFTER CARCINOGEN TREATMENT FOLLOWED BY 6 MO OBSERVATION P, Route [Inhibitor]: ORAL, Species: MOUSE, Strain/Sex: STRAIN-A/MALE, Target Tissue: Type of Lesion: LUNG: ADENOMA, Dose [Carcinogen]: 100 MG/KG ONCE, Promoter: NONE USED) 18/18 (100%), 19/19 (100%), 0%, not significant; (Carcinogen: DIBENZO[A,H]PYRENE, 189-64-0, Dose [Inhibitor]: 0, 300 NMOL (TOTAL DOSE) APPLIED 10 MIN PRIOR TO CARCINOGEN DOSE INJECTED AS 1/7, 2/7, AND 4/7 OF THE TOTAL ON DAYS 1, 8, Route [Inhibitor]: INTRAPERITONEAL, Species: MOUSE, Strain/Sex: ICR/MALE,FEMALE, Target Tissue: Type of Lesion: LUNG: TUMOR, Dose [Carcinogen]: 50 NMOL (TOTAL DOSE) INJECTED IN DOSES OF 1/7, 2/7, AND 4/7 ON DAYS 1, 8, AND 15 OF LIFE, RESPECTIVELY, Promoter: NONE USED) 95%, 100%, -5%, not significant. Moreover, the “tumour outcome (control, treated, inhibition, significance)” value is on record as 100%, 100%, 0%, not significant (Carcinogen: DIETHYLNITROSAMINE, 55-18-5, Dose [Inhibitor]: 0, 900 MG/KG BW BY INTRAPERITONEAL INJECTION ON DAYS 13, 14 AND 15 OF AGE THEN 6 G/KG DIET FROM 21 TO 161 DAYS OF AGE (S, Route [Inhibitor]: INTRAPERITONEAL, ORAL, Species: MOUSE, Strain/Sex: C3H/MALE, Target Tissue: Type of Lesion: LIVER: ADENOMA, Dose [Carcinogen]: 4 MG/KG IN TRICAPRYLIN ONCE ON DAY 15 OF AGE, Promoter: NONE USED); 4/14 (29%), 1/12 (8%), 72%, not significant (Carcinogen: DIETHYLNITROSAMINE, 55-18-5, N-METHYLNITROSOUREA, 684-93-5, 1,2-DIMETHYLHYDRAZINE, 540-73-8, N-BUTYL-N-(4-HYDROXYB, Carcinogen: DIETHYLNITROSAMINE, 55-18-5, N-METHYLNITROSOUREA, 684-93-5, 1,2-DIMETHYLHYDRAZINE, 540-73-8, N-BUTYL-N-(4-HYDROXYB, Dose [Inhibitor]: 0, 1% IN DIET FOR 4 WK BEGINNING 1 DAY PRIOR TO CARCINOGEN TREATMENT (STUDY DURATION: 36 WK), Route [Inhibitor]: ORAL, Species: RAT, Strain/Sex: F344/MALE, Target Tissue: Type of Lesion: KIDNEY: ADENOMA, Dose [Carcinogen]: 100 MG/KG DEN ONCE, 20 MG/KG MNU 4 TIMES, 40 MG/KG DMH 4 TIMES, 0.05% BBN IN DRINKING WATER FOR 2 WK, 0.1% DHPN IN D, Dose [Carcinogen]: 100 MG/KG DEN ONCE, 20 MG/KG MNU 4 TIMES, 40 MG/KG DMH 4 TIMES, 0.05% BBN IN DRINKING WATER FOR 2 WK, 0.1% DHPN IN D, Promoter: NONE USED); 7/14 (50%), 5/12 (42%), 16%, not significant (Carcinogen: DIETHYLNITROSAMINE, 55-18-5, N-METHYLNITROSOUREA, 684-93-5, 1,2-DIMETHYLHYDRAZINE, 540-73-8, N-BUTYL-N-(4-HYDROXYB, Carcinogen: DIETHYLNITROSAMINE, 55-18-5, N-METHYLNITROSOUREA, 684-93-5, 1,2-DIMETHYLHYDRAZINE, 540-73-8, N-BUTYL-N-(4-HYDROXYB, Dose [Inhibitor]: 0, 1% IN DIET FOR 4 WK BEGINNING 1 DAY PRIOR TO CARCINOGEN TREATMENT (STUDY DURATION: 36 WK), Route [Inhibitor]: ORAL, Species: RAT, Strain/Sex: F344/MALE, Target Tissue: Type of Lesion: KIDNEY: NEPHROBLASTOMA, Dose [Carcinogen]: 100 MG/KG DEN ONCE, 20 MG/KG MNU 4 TIMES, 40 MG/KG DMH 4 TIMES, 0.05% BBN IN DRINKING WATER FOR 2 WK, 0.1% DHPN IN D, Dose [Carcinogen]: 100 MG/KG DEN ONCE, 20 MG/KG MNU 4 TIMES, 40 MG/KG DMH 4 TIMES, 0.05% BBN IN DRINKING WATER FOR 2 WK, 0.1% DHPN IN D, Promoter: NONE USED); 7/14 (50%), 5/12 (42%), 16%, not significant (Carcinogen: DIETHYLNITROSAMINE, 55-18-5, N-METHYLNITROSOUREA, 684-93-5, 1,2-DIMETHYLHYDRAZINE, 540-73-8, N-BUTYL-N-(4-HYDROXYB, Carcinogen: DIETHYLNITROSAMINE, 55-18-5, N-METHYLNITROSOUREA, 684-93-5, 1,2-DIMETHYLHYDRAZINE, 540-73-8, N-BUTYL-N-(4-HYDROXYB, Dose [Inhibitor]: 0, 1% IN DIET FOR 4 WK BEGINNING 1 DAY PRIOR TO CARCINOGEN TREATMENT (STUDY DURATION: 36 WK), Route [Inhibitor]: ORAL, Species: RAT, Strain/Sex: F344/MALE, Target Tissue: Type of Lesion: LARGE INTESTINE: ADENOMA, Dose [Carcinogen]: 100 MG/KG DEN ONCE, 20 MG/KG MNU 4 TIMES, 40 MG/KG DMH 4 TIMES, 0.05% BBN IN DRINKING WATER FOR 2 WK, 0.1% DHPN IN D, Dose [Carcinogen]: 100 MG/KG DEN ONCE, 20 MG/KG MNU 4 TIMES, 40 MG/KG DMH 4 TIMES, 0.05% BBN IN DRINKING WATER FOR 2 WK, 0.1% DHPN IN D, Promoter: NONE USED); 3/14 (21%), 4/12 (33%), -57%, not significant (Carcinogen: DIETHYLNITROSAMINE, 55-18-5, N-METHYLNITROSOUREA, 684-93-5, 1,2-DIMETHYLHYDRAZINE, 540-73-8, N-BUTYL-N-(4-HYDROXYB, Carcinogen: DIETHYLNITROSAMINE, 55-18-5, N-METHYLNITROSOUREA, 684-93-5, 1,2-DIMETHYLHYDRAZINE, 540-73-8, N-BUTYL-N-(4-HYDROXYB, Dose [Inhibitor]: 0, 1% IN DIET FOR 4 WK BEGINNING 1 DAY PRIOR TO CARCINOGEN TREATMENT (STUDY DURATION: 36 WK), Route [Inhibitor]: ORAL, Species: RAT, Strain/Sex: F344/MALE, Target Tissue: Type of Lesion: LARGE INTESTINE: CARCINOMA, Dose [Carcinogen]: 100 MG/KG DEN ONCE, 20 MG/KG MNU 4 TIMES, 40 MG/KG DMH 4 TIMES, 0.05% BBN IN DRINKING WATER FOR 2 WK, 0.1% DHPN IN D, Dose [Carcinogen]: 100 MG/KG DEN ONCE, 20 MG/KG MNU 4 TIMES, 40 MG/KG DMH 4 TIMES, 0.05% BBN IN DRINKING WATER FOR 2 WK, 0.1% DHPN IN D, Promoter: NONE USED); 6/14 (43%), 1/12 (8%), 81%, not calculated (Carcinogen: DIETHYLNITROSAMINE, 55-18-5, N-METHYLNITROSOUREA, 684-93-5, 1,2-DIMETHYLHYDRAZINE, 540-73-8, N-BUTYL-N-(4-HYDROXYB, Carcinogen: DIETHYLNITROSAMINE, 55-18-5, N-METHYLNITROSOUREA, 684-93-5, 1,2-DIMETHYLHYDRAZINE, 540-73-8, N-BUTYL-N-(4-HYDROXYB, Dose [Inhibitor]: 0, 1% IN DIET FOR 4 WK BEGINNING 1 DAY PRIOR TO CARCINOGEN TREATMENT (STUDY DURATION: 36 WK), Route [Inhibitor]: ORAL, Species: RAT, Strain/Sex: F344/MALE, Target Tissue: Type of Lesion: SMALL INTESTINE: ADENOMA, Dose [Carcinogen]: 100 MG/KG DEN ONCE, 20 MG/KG MNU 4 TIMES, 40 MG/KG DMH 4 TIMES, 0.05% BBN IN DRINKING WATER FOR 2 WK, 0.1% DHPN IN D, Dose [Carcinogen]: 100 MG/KG DEN ONCE, 20 MG/KG MNU 4 TIMES, 40 MG/KG DMH 4 TIMES, 0.05% BBN IN DRINKING WATER FOR 2 WK, 0.1% DHPN IN D, Promoter: NONE USED).
